Laboratory results published in ChEMBL document CHEMBL4145628, “Strategy for Extending Half-life in Drug Design and Its Significance” (ACS Med Chem Lett, 2018).

Key:
[1] = Bioavailability in rat; assay type: ADME, organism-based; conditions: in vivo
[2] = Plasma clearance in rat; assay type: ADME, organism-based
[3] = Fraction unbound in rat plasma; assay type: ADME, cell-free
[4] = Effective half life in rat; assay type: ADME, organism-based; conditions: in vivo, read-out: t1/2eff (converted)

| SMILES | bioavailability [1] | clearance [2] | fraction unbound [3] | half-life [4] |
| --- | --- | --- | --- | --- |
| CC(C)Oc1cc2c(-c3cc(N4C[C@@H](C)O[C@@H](C)C4)ncn3)n[nH]c2cc1F | 20% | 65 mL/min/kg | 0.008 | 56.4 min |
| CC(C)Oc1ccc2[nH]nc(-c3cc(N4C[C@@H](C)O[C@@H](C)C4)ncn3)c2c1 | 25% | 64 mL/min/kg | 0.017 | 34.2 min |
| C[C@H]1CN(c2cc(-c3n[nH]c4ccc(OC5(C)CC5)cc34)ncn2)CCO1 | 32% | 69 mL/min/kg | 0.019 | 31.2 min |
| CC1(Oc2ccc3[nH]nc(-c4cc(N5CCO[C@@H](CO)C5)ncn4)c3c2)CC1 | 36% | 78 mL/min/kg | 0.051 | 29.4 min |
